Measured values published in PubChem BioAssay AID1963848 (Molecular Pharmacology Branch, DTP, NCI, 2024).

System: 379773-124-R-J2-PDC spheroid viability
Assay: Anticancer human tumor 379773-124-R-J2-PDC patient-derived endometrial carcinoma cell line growth inhibition [POLQ]
Conditions: spheroids with HUVEC and MSC; for IC50: curve of first compound; for viability, T/C: stronger effect = lower value; active means viability on the fitted dose curve at most 10% of control; inactive means the rest
Method: Multicellular complex tumor spheroid response to Polymerase (POL) inhibitors (novobiocin, ART-558, RP6685) in combination with a variety of drugs and investigational agents in selected tumor cell lines
The POL inhibitors (novobiocin, ART-558, and RP6685) were evaluated both individually and in combination with standard of care and investigational anticancer small molecules within a complex spheroid model of solid tumors. . Complex spheroids include a stromal component modeled by human endothelial cells (HUVEC) and fibroblasts modeled by human mesenchymal stem cells (MSCs). The concentration ranges selected for each drug and investigational agent were based upon clinically achievable concentrations if the clinical Cmax of the agent was known.
Compounds. The drugs and investigational agents: novobiocin (NSC847541), ART-558 (NSC835418), RP-6685 (NSC848927), peposertib (NSC802822), ceralasertib (NSC780249), elimusertib (NSC800525), camonsertib (NSC841442), AZD-1390 (NSC803789), olaparib (NSC753686), talazoparib (NSC767125), rucaparib (NSC756644), sotorasib (NSC818433), MRTX-1133 (NSC836407), SN-38 (NSC673596), topotecan (NSC609699), epotoside (NSC141540), doxorubicin (NSC123127), gemcitabine (NSC613327), 5-fluorouracil (NSC19893), paclitaxel (NSC125973), vemurafenib (NSC761431), MSA-2 (NSC828583), SN-011 (NSC837082), adavosertib (NSC754352), prexasertib (NSC758257), carboplatin (NSC241240) and oxaliplatin (NSC266046), were obtained from the National Cancer Institute (NCI) Developmental Therapeutics Program Chemical Repository (21). The FDA-approved anticancer drug set is available from the Developmental Therapeutics Program at https://dtp.cancer.gov/organization/dscb/obtaining/. […] The stock solutions were prepared in dimethyl sulfoxide (DMSO, Sigma-Aldrich, St. Louis, MO, cat. D2650), except for the platinum compounds which were prepared in saline (Quality Biological, Gaithersburg, MD, cat. 114-055-101), at 800-fold the tested concentration and stored at -70 degrees C prior to their use. All drugs and investigational agents were tested over a range starting from a high concentration at or near the clinical Cmax and decreasing in half-log increments. If the clinical Cmax for an agent had not been determined, the highest concentration tested was 10 microM, except for SN-38, which was tested at a high concentration of 1 microM.
Cell Culture. All cells were maintained in an incubator at 37 degrees C and 5% CO2 with 95% humidity. The PDC lines were cultured according to standard operating procedures established by the NCI PDMR (https://pdmr.cancer.gov). Table 3 of the manuscript, lists the cell lines along with the number of the three cell types plated to form the mct-spheroids and media for tumor cell growth. After thawing, all PDC lines, except 997537-175-T-J1-PDC and 415267-285-R-J2-PDC, were cultured in Matrigel-coated flasks prepared with a working solution of 1X Ham's F-12 nutrient mix, without supplementation (Thermo Fisher Scientific, cat. 11765054), 100 U/mL penicillin-streptomycin (Thermo Fisher Scientific, cat. 15140122), and 2.5% Matrigel (Corning Inc., Corning, NY, cat. 354248) for the first three passages. The two PDC lines 997537-175-T-J1-PDC and 415267-285-R-J2-PDC were cultured on uncoated flasks. The 857933-349-R-J2-PDC line was cultured in 6C/Colon 1B media containing advanced DMEM/F-12 (Thermo Fisher Scientific, cat. 12634028), 10 mM HEPES (Thermo Fisher Scientific, cat. 15630080), 1X GlutaMAX supplement (Thermo Fisher Scientific, cat. 35050061), 0.1 mg/mL primocin (InvivoGen, San Diego, CA, cat. ant-pm-2), 10% defined fetal bovine serum, heat inactivated (HyClone Laboratories Inc., Logan, UT, cat. SH30070.03HI), 50% L-WRN conditioned media (ATCC, cat. CRL-3276), 1.25 mM N-Acetyl-L-cysteine (Sigma-Aldrich, cat. A9165), 10 mM nicotinamide (Sigma-Aldrich, cat. N0636), 1X B-27 supplement (Thermo Fisher Scientific, cat. 17504044), 1X N-2 supplement (Thermo Fisher Scientific, cat. […]

[1] = second compound 0.0316 µM, first compound 0.0316 µM
[2] = second compound 0.0316 µM, first compound 0.1 µM
[3] = second compound 0.0316 µM, first compound 0.316 µM
[4] = second compound 0.0316 µM, first compound 1 µM
[5] = second compound 0.0316 µM, first compound 3.16 µM
[6] = second compound 0.0316 µM, first compound 10 µM
[7] = second compound 0.1 µM, first compound 0.0316 µM
[8] = second compound 0.1 µM, first compound 0.1 µM
[9] = second compound 0.1 µM, first compound 0.316 µM
[10] = second compound 0.1 µM, first compound 1 µM
[11] = second compound 0.1 µM, first compound 3.16 µM
[12] = second compound 0.1 µM, first compound 10 µM
[13] = second compound 0.316 µM, first compound 0.0316 µM
[14] = second compound 0.316 µM, first compound 0.1 µM
[15] = second compound 0.316 µM, first compound 0.316 µM
[16] = second compound 0.316 µM, first compound 1 µM
[17] = second compound 0.316 µM, first compound 3.16 µM
[18] = second compound 0.316 µM, first compound 10 µM
[19] = second compound 1 µM, first compound 0.0316 µM
[20] = second compound 1 µM, first compound 0.1 µM
[21] = second compound 1 µM, first compound 0.316 µM
[22] = second compound 1 µM, first compound 1 µM
[23] = second compound 1 µM, first compound 3.16 µM
[24] = second compound 1 µM, first compound 10 µM
[25] = second compound 3.16 µM, first compound 0.0316 µM
[26] = second compound 3.16 µM, first compound 0.1 µM
[27] = second compound 3.16 µM, first compound 0.316 µM
[28] = second compound 3.16 µM, first compound 1 µM
[29] = second compound 3.16 µM, first compound 3.16 µM
[30] = second compound 3.16 µM, first compound 10 µM
[31] = second compound 10 µM, first compound 0.0316 µM
[32] = second compound 10 µM, first compound 0.1 µM
[33] = second compound 10 µM, first compound 0.316 µM
[34] = second compound 10 µM, first compound 1 µM
[35] = second compound 10 µM, first compound 3.16 µM
[36] = second compound 10 µM, first compound 10 µM
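Further: spheroids exposed to drugs for seven days before readout.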
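Wherever viability, T/C is given: percent viability relative to DMSO vehicle control taken as 100%.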

CC(C)n1c(=O)n(C)c2cnc3cc(F)c(-c4ccc(OCCCN5CCCCC5)nc4)cc3c21 + COC1C(OC(N)=O)C(O)C(Oc2ccc3c(O)c(NC(=O)c4ccc(O)c(CC=C(C)C)c4)c(=O)oc3c2C)OC1(C)C
> 10000 nM: IC50 (second compound 0.0316 µM) | IC50 (second compound 0.1 µM) | IC50 (second compound 0.316 µM) | IC50 (second compound 1 µM) | IC50 (second compound 3.16 µM) | IC50 (second compound 10 µM)
inactive: viability, T/C [1] 92.3% | viability, T/C [2] 74% | viability, T/C [3] 86.2% | viability, T/C [4] 75.7% | viability, T/C [5] 67.5% | viability, T/C [6] 56.5% | viability, T/C [7] 85.2% | viability, T/C [8] 87.4% | viability, T/C [9] 87.5% | viability, T/C [10] 76.6% | viability, T/C [11] 64.3% | viability, T/C [12] 68.4% | viability, T/C [13] 99.1% | viability, T/C [14] 81.2% | viability, T/C [15] 84% | viability, T/C [16] 75.3% | viability, T/C [17] 67.5% | viability, T/C [18] 60.5% | viability, T/C [19] 85.5% | viability, T/C [20] 81.2% | viability, T/C [21] 77.4% | viability, T/C [22] 71.7% | viability, T/C [23] 69.8% | viability, T/C [24] 75.7% | viability, T/C [25] 78% | viability, T/C [26] 81.7% | viability, T/C [27] 77.7% | viability, T/C [28] 68.1% | viability, T/C [29] 77.7% | viability, T/C [30] 80.4% | viability, T/C [31] 80.2% | viability, T/C [32] 74.6% | viability, T/C [33] 79.7% | viability, T/C [34] 72.2% | viability, T/C [35] 80.7% | viability, T/C [36] 64.9%

COc1cc(C2c3cc4c(cc3C(OC3OC5COC(C)OC5C(O)C3O)C3COC(=O)C23)OCO4)cc(OC)c1O (centres undefined) + Nc1ccc(C#CCN(C(=O)Cc2ncc(C(F)(F)F)cc2C(F)(F)F)c2ccc(F)cc2)nn1
1570 nM: IC50 (second compound 0.1 µM)
1500 nM: IC50 (second compound 0.0316 µM)
1410 nM: IC50 (second compound 3.16 µM)
1240 nM: IC50 (second compound 1 µM) | IC50 (second compound 10 µM)
inactive: viability, T/C [1] 95.4% | viability, T/C [2] 116% | viability, T/C [3] 81.9% | viability, T/C [4] 70.4% | viability, T/C [5] 17% | viability, T/C [6] 15.5% | viability, T/C [7] 98.8% | viability, T/C [8] 86% | viability, T/C [9] 90% | viability, T/C [10] 70.2% | viability, T/C [11] 18.6% | viability, T/C [12] 14.1% | viability, T/C [13] 92.5% | viability, T/C [14] 116% | viability, T/C [15] 97% | viability, T/C [16] 67.4% | viability, T/C [17] 15.9% | viability, T/C [18] 16.8% | viability, T/C [19] 99.1% | viability, T/C [20] 96.2% | viability, T/C [21] 78.4% | viability, T/C [22] 62.2% | viability, T/C [23] 17.3% | viability, T/C [24] 13.8% | viability, T/C [25] 94.1% | viability, T/C [26] 96.1% | viability, T/C [27] 81.7% | viability, T/C [28] 65.1% | viability, T/C [29] 18.2% | viability, T/C [30] 13.6% | viability, T/C [31] 98% | viability, T/C [32] 92.7% | viability, T/C [33] 98% | viability, T/C [34] 57.6% | viability, T/C [35] 16.9% | viability, T/C [36] 16.3%
1490 nM: IC50 (second compound 0.316 µM)
